From patent US20240285589A1, “TREATMENT USING AN ANTIVIRAL COMPOUND AND NITAZOXANIDE” (priority 2021, published 2024)

Experiments:
Assay type in all cases: in vivo, human
[1] = system: herpes 4 and 6 as persistent infections; test: Case Study 1: adult with CFS, anxiety and irritable bowel syndrome; settings: valacyclovir 1000 mg two times per day orally, alone
Experimental: Antiviral therapy with valacyclovir at 1000 mg two times per day orally was begun. […] NTZ was added at 500 mg two times per day orally to the regimen.

[2] = system: persistent Herpes 4 and 6 infections; test: Case Study 2: adult with multiple symptoms of VIFD (CFS, fibromyalgia, pain)
Description: An adult presented with multiple symptoms of VIFD across multiple systems. They experienced fatigue, brain fog, and unrefreshing sleep consistent with CFS. They experienced muscle and joint pain with trigger point pain and exaggerated reactions to pain consistent with fibromyalgia. They experienced pelvic and vaginal pain, headaches, depression, anxiety, sore throat, painful lymph nodes, numbness, and generalized pain. The symptoms involved the central nervous system, the genitourinary system, the gastrointestinal system, the immune system, the musculoskeletal system and the peripheral nervous system. […] The dose of valacyclovir was increased to 2000 mg two times per day orally. […] NTZ was then added at 500 mg two times per day orally.

[3] = system: persistent Herpes 4 and 6 infections; test: Case Study 3: late-middle-aged person with Parkinson's disease symptoms and depression, perfusion SPECT; settings: valacyclovir 1000 mg in the morning and 2000 mg at night orally; after three months
Description: FIGS. 1A-1B show perfusion SPECT scan from Case Study 3. […] Scale illustrates levels of perfusion with normal perfusion at the central light grey and decreased perfusion illustrated by progressively darker shades of grey.
A late-middle-aged person presented for evaluation of Parkinson's disease and depression. They had been diagnosed with Parkinson's disease by a neurologist based on clinical signs of tremor and bradykinesia. No neuroimaging had been done. […] A single-photon emission computed tomography (SPECT) brain perfusion scan and a dopamine transporter SPECT scan (DaTscan) were ordered. […] The patient was started on antiviral therapy with valacyclovir at 1000 mg two times per day orally. The dose was increased to 1000 mg orally in the morning and 2000 mg orally at night. […] A repeat perfusion SPECT brain scan was performed (FIG. 1B).

[4] = system: persistent Herpes 4 and Herpes 6 infections; test: Case Study 5: person with severe fatigue
Experimental: An active person had struggled with depression and obsessive-compulsive disorder in the past, but these problems were well-controlled with medications. They actively engaged in daily exercising, including skiing, bicycle riding, and vigorous walking. Suddenly, they developed severe fatigue. […] The patient was started on valacyclovir at a dose of 1000 mg two times per day orally. […] Then they were switched to famciclovir, titrating from 500 mg two times per day to 1000 mg two times per day orally. […] Within two months, the patient noted less fatigue.

[5] = system: Epstein-Barr virus and Herpes 1 virus; test: Case Study 6: person with severe depression, IBS, brain fog, fatigue, headaches, SPECT; settings: valacyclovir 1000 mg two times per day orally; after three months
Description: Scale illustrates levels of perfusion in a different manner from FIG. 1. The dark grey central portion of the scale illustrates statistically normal perfusion in a given area relative to a normative database. Areas of progressively lighter grey to white illustrate areas which are 2 standard deviation (SD), 3 SD, and 4 SD below the mean of the normative database, respectively.
A person presented with a history of depression since their teen years. They were severely depressed upon presentation (Quick Inventory of Depressive Symptomatology scale 26/27) and spent most of their time in their bedroom in the basement of their parent's house. They had withdrawn from college and had never held a full-time job. Their condition was complicated by irritable bowel syndrome, brain fog, pervasive fatigue, and headaches. […] The patient also underwent a functional brain scan (single photon emission computed tomography—SPECT). […] The patient was started on the antiviral valacyclovir at 1000 mg two times per day orally. […] NTZ was added at a dose of 500 mg two times per day orally. After one month, the dose of NTZ was increased to 1000 mg two times per day orally.

[6] = system: persistent Herpes 1 and Herpes 4 infections; test: Case Study 4: person with memory problems, dementia consistent with Alzheimer's disease; settings: after six months
Experimental: A person presented for evaluation of memory problems. Cognitive testing was consistent with dementia. A SPECT functional brain scan was performed. The results were consistent with Alzheimer's disease. […] The patient was started on antiviral therapy with valacyclovir 1000 mg two times per day orally. The valacyclovir was stopped and famciclovir was started at 500 mg two times per day orally. After one month, the famciclovir was increased to 1000 mg two times per day orally. […] was added to their regimen at a dose of 500 mg two times per day orally. […] Family members were thrilled with the improvement.

`CC(C)[C@H](N)C(=O)OCCOCn1cnc2c(=O)[nH]c(N)nc21` [valacyclovir] was tested, and the “brain fog, anxiety, bowel movements” value [1] was “still struggled with brain fog, anxiety, and frequent bowel movements”, the fatigue [1] was “modest improvement in fatigue” and the “need to nap on a daily basis” value [1] was “no longer needed to nap on a daily basis”. The symptoms ([2]; valacyclovir 1000 mg two times per day orally, over three months) was “minor improvement”, the symptoms ([2]; valacyclovir increased to 2000 mg two times per day orally) was “slight additional benefit” and the depression symptoms [3] was “marked improvement”. The energy and motivation [3] was “improved energy and motivation”, the tremor and bradykinesia [3] was “continued to experience tremor and bradykinesia” and the “symptoms of severe fatigue” value ([4]; valacyclovir 1000 mg bid orally, after four months increased to 2000 mg two times per day) was “did not improve”. For the same molecule, the clarity of thinking [5] was “could think more clearly”, the depression [5] was “somewhat less depressed” and the fatigue [5] was “somewhat less fatigued”. For the same molecule, the improvement in symptoms [5] was “roughly 20%”.

For `CC(=O)OCC(CCn1cnc2cnc(N)nc21)COC(C)=O` [famciclovir], the “memory function as reflected by scores on cognitive testing” value ([6]; famciclovir 500 mg then 1000 mg two times per day orally) was “modest improvement”, the daily memory function ([6]; famciclovir 1000 mg two times per day orally) was “struggled still with daily memory function” and the “symptoms of severe fatigue” value ([4]; famciclovir titrated from 500 mg to 1000 mg two times per day orally, after three months) was “no improvement”.

For `CC(C)[C@H](N)C(=O)OCC(CO)OCn1cnc2c(=O)nc(N)[nH]c21` (some centres unmarked) [valganciclovir], the “symptoms of severe fatigue” value ([4]; valganciclovir titrated from 450 mg to 900 mg two times per day, after four months) was “without improvement”.
